The values that follow come from patent US20140328762A1, “Fluorogenic Peptide Probes and Assays” (priority 2011, published 2014).

Where two headings read alike, the source gives them in different places.

The subject of assay [1] is AP-1 DNA. The assay can be described thus: Absorbance spectra of GCN4 beacons with AP-1 DNA. It is filed as binding. The conditions noted are these: 1 μM beacon, 10 μM DNA. The protocol: FIGS. 2A and 2B show line graphs of absorbance versus wavelength (nm). […] All samples contain 1 μM beacon, and concentration for DNA is 10 μM.
(§1) The AP-1 DNA and AT DNA were used for GCN-4 beacons binding assays as the target and control DNAs, respectively. Rex aptamer and TAR RNA were used for Rex beacon binding assays as the target and control RNAs, respectively. For detailed structures of Rex aptamer and TAR RNA, refer to PDB 1EXY and 1MNB, respectively.
As shown by the shifted absorbance peaks (i.e. shift of highest peak) in FIGS. 2A and 2B, both GCN4 225/237 and GCN4 225/244 beacons allow formation of TAMRA H-dimer. […] The GCN4 225/244 beacon was selected for further characterization.

Assay [2] deals with AP-1 DNA. Description: Fluorescence titration of GCN4 beacon with AP-1 DNA. It is filed as binding. The note with it: titration of 100 nM beacon with increasing concentration of AP-1 DNA. The protocol:
(§2) Samples contain 100 nM GCN4 225/244 beacon and indicated concentration of DNA.
as §1

A further assay concerns AT DNA. Description: Fluorescence titration of GCN4 beacon with AT DNA (negative control). It is filed as binding. The note with it: 100 nM beacon. The protocol:
as §2, §1

Assay [3] has as its target E3 peptide. The assay can be described thus: Fluorescence titration of K3-b1b3 beacon with E3 peptide. The format is binding. On the procedure:
(§3) All spectra data were obtained with Safire II microplate reader (TECAN). Data was acquired right after mixing the beacon with its target.
To further characterize the K3-b1b3 beacon, titration of lower concentration (10 nM) of K3-b1b3 beacon has also been performed.

Another assay addresses wild-type MBP (Escherichia coli, UniProt P0AEX9). The note with it: data not shown.
Description: as §3
(§4) The application of using the K3-b1b3 beacon for detection of E3-fusion proteins has also been tested. For this purpose, a recombinant maltose binding protein (MBP) with E3 fused at its C-terminal end was created.

A further assay concerns the target MBP-E3 (Escherichia coli, UniProt P0AEX9). The conditions noted are these: data not shown.
Description: as §4

For assay [4], the system named is E3 peptide. The assay can be described thus: Non-specific fluorescence enhancement (crosstalk) assay, FIG. 14, with E3 peptide. The note with it: 100 nM beacon, 10 μM E3 peptide, 580 nm, excitation 520 nm. The format is binding. The protocol: (§5) FIGS. 14A and 14B show bar graphs of relative fluorescence intensity versus different peptide beacons. Non-specific fluorescence enhancement of peptide beacons by various unrelated coiled coil-forming peptides is shown. All reagents other than the beacons are loaded to 10 μM. The data represent relative fluorescence intensity at 580 nm (bandwidth 20 nm) collected by excitation at 520 nm (band width 15 nm). (FIG. 14A) All samples contain 100 nM K3-b1b3 beacon. Columns A, B, C, D, E are beacon only, beacon with unlabeled JunLZ-Lb1b4, beacon with unlabeled FosLZ, beacon with unlabeled GCN4 244, and beacon with E3 peptide, respectively. […] Column A, B, C, D, E are beacon only, beacon with unlabeled K3-b1b3 peptide, beacon with E3 peptide, beacon with unlabeled GCN4 244, beacon with FosLZ.
(§6) So a concern about the binding specificity naturally arises. […] It is not a surprising result, since both peptides have leucine residues at all d positions, and that multiple electrostatic interactions exist between […].

A further assay has as its target T1, FosLZ (Homo sapiens, UniProt P01100).
T1 construct: TDTLQAE TDQLEDE KSALQTE IANLLKE KEKLEFI LA; made in house; host or cells: E. coli BL21(DE3)
The assay can be described thus: Non-specific fluorescence enhancement (crosstalk) assay, FIG. 14, with FosLZ. The conditions noted are these: 100 nM beacon, 10 μM FosLZ, 580 nm, excitation 520 nm. It is filed as binding. On the procedure:
as §5, §6

In the next assay the target is T2, unlabeled GCN4 244 (Saccharomyces cerevisiae, UniProt P03069, A244C/S225C).
T2 construct: […]; MKQLEDK; GGSGG linker (internal); made in house; host or cells: E. coli BL21(DE3)
The assay can be described thus: Non-specific fluorescence enhancement (crosstalk) assay, FIG. 14, with unlabeled GCN4 244. It is filed as binding, yeast. The note with it: 100 nM beacon, 10 μM unlabeled GCN4 244, 580 nm, excitation 520 nm. On the procedure: as §5, §6

The next assay relates to unlabeled JunLZ-Lb1b4. The assay can be described thus: Non-specific fluorescence enhancement (crosstalk) assay, FIG. 14A, with unlabeled JunLZ-Lb1b4. The format is binding. The note with it: 100 nM beacon, 10 μM unlabeled JunLZ-Lb1b4, 580 nm, excitation 520 nm. On the procedure:
as §5, §6

Assay [5] relates to unrelated coiled coil-forming peptides. Description: Crosstalk of beacon with unrelated peptides, overall. The note with it: FIG. 14. It is filed as binding. The protocol: as §5, §6
Assay [6] concerns the target E3 peptide. The note with it: cited from earlier work.
Assay [7] addresses E3 peptide. The assay can be described thus: CD spectra analysis of binding between unlabeled K3-b1b3 and E3 peptides. The note with it: curve fitting.

For “GCN4 225/244 beacon: GCN4 bZip S225C/A244C (SEQ ID NO: 27), fused to C-terminal end of MBP, TAMRA labelled”, in the assay on AP-1 DNA [1], the “change of absorbance spectrum in the presence of AP-1 DNA” value is given as “significant alteration of its absorbance spectrum”. The substance also came in with a maximum fluorescence increase in the assay with AP-1 DNA [2] of 4.3 fold. Besides, the “effect of AT DNA on fluorescence” value in the assay on AT DNA was “no effects”.
Consider “K ICALKAK IAALKAK ICALKAGY (SEQ ID NO: 12) with two 6-TAMRA fluorophores attached at the cysteines via maleimide [K3-b1b3 beacon]”, for which the Kd at E3 peptide [3] (curve fitting, 1 μM beacon titration, read-out: Kd value for binding between K3-b1b3 beacon and E3 peptide) is 766 nM; on E3 peptide [3] (curve fitting, titration of 10 nM beacon, read-out: Kd value for binding between K3-b1b3 beacon and E3 peptide), 738 nM; on E3 peptide [3] (read-out: Kd, result of 1 μM beacon titration (restated), 1 μM beacon titration), 766 nM. The maximum fluorescence enhancement result in the assay on E3 peptide [3] (titration of 1 μM K3-b1b3 beacon with E3 peptide) is “about 12 fold”. The “effect on fluorescence emission of the beacon” value on wild-type MBP is “does not have effects”. For the same substance, on MBP-E3, the “binding by gel-shift assay” value was “Specific binding”. Also, the “fluorescence enhancement compared with the beacon only sample” value in the assay with E3 peptide [4] turned out to be 7.0 fold; at FosLZ, 1.6 fold; at unlabeled GCN4 244, 1.2 fold; in the assay on unlabeled JunLZ-Lb1b4 it was 1.5 fold. The “non-specific fluorescence enhancement by unrelated peptides” value in assay [5] is “no significant non-specific fluorescence enhancement”.
In the case of “original K3 peptide K IAALKEK IAALKEK IAALKE (SEQ ID NO:29)”, the Kd is 70 nM at E3 peptide [6] (literature value restated in Example 4, read-out: Kd value for binding between the K3 and E3 peptides); 70 nM at E3 peptide [6] (reported in the literature, read-out: Kd value for binding between the original K3 and E3 peptides).
On E3 peptide [7], “unlabeled modified K3 peptide K ICALKAK IAALKAK ICALKA GY (SEQ ID NO:12) [K3-b1b3]” displayed a Kd of 45 nM.
